Molecular target: T1, Perforin-1 (Homo sapiens, UniProt P14222)
T1 sequence (P14222 whole entry): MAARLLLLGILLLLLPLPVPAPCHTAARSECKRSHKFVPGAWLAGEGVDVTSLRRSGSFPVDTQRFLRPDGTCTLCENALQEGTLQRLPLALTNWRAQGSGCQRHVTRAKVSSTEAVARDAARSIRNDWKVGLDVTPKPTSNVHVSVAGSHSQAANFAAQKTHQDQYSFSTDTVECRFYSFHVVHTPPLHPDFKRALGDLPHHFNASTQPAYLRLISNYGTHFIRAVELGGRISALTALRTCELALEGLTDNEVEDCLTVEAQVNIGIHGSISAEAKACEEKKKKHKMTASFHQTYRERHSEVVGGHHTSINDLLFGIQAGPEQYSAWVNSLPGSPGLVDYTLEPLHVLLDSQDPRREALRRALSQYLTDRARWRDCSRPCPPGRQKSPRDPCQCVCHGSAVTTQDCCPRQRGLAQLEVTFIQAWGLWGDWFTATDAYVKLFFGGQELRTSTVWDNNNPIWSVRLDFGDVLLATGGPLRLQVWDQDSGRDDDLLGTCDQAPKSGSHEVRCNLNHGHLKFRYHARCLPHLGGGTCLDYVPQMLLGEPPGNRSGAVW
Test: Inhibition of recombinant perforin-mediated lysis of Jurkat cells assessed as [51Cr] release preincubated with perforin for 30 mins followed by incubation with [51Cr]-labeled Jurkat cells by gamma counting

SMILES | IC50
O=C(NCC=Cc1[nH]c(=S)[nH]c1O)c1ccc2c(c1)COC2=O | > 20 µM

Molecular target: not listed separately
Test: Inhibition of recombinant perforin-mediated lysis of Jurkat cells assessed as [51Cr] release preincubated with perforin for 30 mins followed by incubation with [51Cr]-labeled Jurkat cells by gamma counting

SMILES | IC50
O=C1NC(=O)C(=Cc2ccc(-c3ccc4c(c3)COC4=O)s2)C(=O)N1 | 0.8 µM
O=C1NC(=S)NC1=Cc1cc(-c2ccc3c(c2)COC3=O)ns1 | 1.44 µM
COC(=O)Cc1ccc(-c2ccc3c(c2)COC3=O)s1 | > 20 µM
O=C1NC(=S)SC1=Cc1ccc(-c2ccc3c(c2)COC3=O)s1 | > 10 µM
O=C1NC(=S)NC1=Cc1ccc2cc(-c3ccc4c(c3)COC4=O)ccc2n1 | 0.47 µM
O=C1NC(=S)NC1=Cc1nc(-c2ccc3c(c2)COC3=O)cs1 | 1.41 µM
O=C1NC(=O)C(=Cc2ccc(-c3ccc4c(c3)COC4=O)s2)S1 | 1.12 µM
O=Cc1ccc(-c2ccc3c(c2)COC3=O)s1 | 6.31 µM
O=C1OCc2cc(-c3cccs3)ccc21 | > 20 µM
O=C1OCc2cc(-c3ccc(-c4cnco4)s3)ccc21 | 3.18 µM
O=C1NC(=S)NC1=Cc1ccc(-c2ccc3c(c2)COC3=O)[nH]1 | 2.45 µM
CN1C(=O)C(=Cc2ccc(-c3ccc4c(c3)COC4=O)s2)C(=O)N(C)C1=O | 3.96 µM
CC(=O)c1ccc(-c2ccc3c(c2)COC3=O)s1 | > 20 µM
O=C1NC(=S)NC1=Cc1ccc(-c2ccc3c(c2)COC3=O)s1 | 0.78 µM
O=C1NC(=S)NC1=Cc1cc2cc(-c3ccc4c(c3)COC4=O)ccc2o1 | 0.51 µM
O=C1NC(=S)NC(=O)C1=Cc1ccc(-c2ccc3c(c2)COC3=O)s1 | 0.4 µM
O=C1NCCCC1=Cc1ccc(-c2ccc3c(c2)COC3=O)s1 | 15.2 µM
O=C(O)Cc1ccc(-c2ccc3c(c2)COC3=O)s1 | > 20 µM
O=C1NC(=S)NC1=Cc1ccc(-c2ccc3c(c2)COC3=O)nc1 | 2 µM
O=C1NC(=S)NC1=Cc1csc(-c2ccc3c(c2)COC3=O)n1 | 0.34 µM
O=C1NC(=S)NC1=Cc1cc2cc(-c3ccc4c(c3)COC4=O)ccc2[nH]1 | 0.82 µM
